One compound from patent publication US11084790B2, “Insoluble complex or solvate thereof, pharmaceutical composition and use thereof” (Fruithy Holdings Limited, priority 2017, dated 2021) can be followed below.

Counter-ions that a name gives are not always drawn.

The series in a line: Systemic pharmacokinetic study of a bis(bupivacaine) pamoate suspension after a single subcutaneous injection at three points in a hind limb in SD rats. It is filed as in vivo. The settings on record: male, rat, sc, single subcutaneous injection at three points in left hind limb, 5 mg/kg, bupivacaine in blood. The text has this:
Systemic Pharmacokinetic Study of a bis(bupivacaine) pamoate Suspension After a Single Subcutaneously Injection at Three Points in a Hind Limb in SD Rats
The systemic absorption and exposure of bis(bupivacaine) pamoate in a rat body was further evaluated by performing a systemic pharmacokinetic research on SD rats which were subcutaneously injected with a bis(bupivacaine) pamoate suspension (Formulation Example 3) once at three points in a left hind limb and comparing with a commercial bupivacaine hydrochloride injection. The long-acting sustained release feature of bis(bupivacaine) pamoate was verified by comparing the pharmacokinetic parameters of bis(bupivacaine) pamoate with a commercial formulation.
In the example, 20 healthy SD male rats (Beijing Vital River Laboratory Animal Technology Co., Ltd., 190 to 210 g) were chosen and randomly divided into 2 groups, i.e., a group for Formulation Example 3 and a group for the commercial bupivacaine hydrochloride injection (Wuhu Kangqi Pharmaceutical Co., Ltd.) group, with 10 animals in each group.
About 0.5 mL of venous blood was collected at 30 min, 1 h, 2 h, 6 h, 8 h, 24 h, 48 h, 72 h and 96 h respectively after administration for both groups of laboratory animals for determining the blood drug concentration of bupivacaine.

The term AUC(0-t) denotes exposure summed from dosing to a finite time, without extrapolation to infinity. A high value points to high exposure. Usually Cmax stands for the peak of the concentration-time curve. The Tmax is the time from dosing to the highest level. What is called half-life is how long it takes for the measured level to halve. Higher therefore signals slow loss. For the compound `CCCCN1CCCCC1C(=O)Nc1c(C)cccc1C` (stereo not shown) [bupivacaine hydrochloride], the exposure AUC(0-t) was determined as 711 ng·h/mL, the concentration peaked (Cmax) at 330 ng/mL, the Tmax was determined as 37.8 min and the half-life was 60 min.
